Laboratory results as given in patent US11225505B2, “Antimicrobial polymyxin derivative compounds” (MONASH UNIVERSITY, priority 2015, dated 2022).
In brackets after ≈: the same amount, converted by molar mass. Where a SMILES comes first, the peptide text is derived from it. Bridges are numbered along the chain shown (N, C = ends). [ ]: non-standard residue; d: D form. The star is where a group is joined. Benzothiazole(5-carbonyl) = O=C(c1ccc2scnc2c1)*; Quinoline3carbonyl = O=C(c1cnc2ccccc2c1)*; X58 = Cn1cc(CC(=O)*)c2ccccc21; X69 = Cn1c(C(=O)*)nc2ccccc21; X2 = O=C(c1cc(Cl)cc(Cl)n1)*; X17 = O=C(c1ncc(Br)cc1Cl)*; X1 = O=C(c1ncc(Cl)cc1Cl)*; Dab = NCC[C@H](N)C(=O)O; X70 = O=C(c1csc(Br)c1)*; Abu = CC[C@H](N)C(=O)O; Dap = NC[C@H](N)C(=O)O

Tests used:
Type in all cases: cell-based
[1] = test system: Acinetobacter baumannii FADDI-AB030; experiment: microbe, parasite or virus in culture; details: FADDI-AB030
Procedure, shortened: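 Lipopeptide TFA salts tested against the multidrug-resistant clinical isolate by CLSI (M100-S24) broth microdilution in cation-adjusted Mueller-Hinton broth, with polymyxin B sulphate as control; MIC read.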

[2] = test system: Klebsiella pneumoniae FADDI-KP022; details: FADDI-KP022
Procedure, shortened: (§1)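 In cation-adjusted Mueller-Hinton broth, each lipopeptide (TFA salt) was titrated against the bacteria by microdilution and the minimum inhibitory concentration recorded per CLSI M100-S24; polymyxin B sulphate ran in parallel.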

[3] = test system: Enterobacter cloacae FADDI-EC001; details: FADDI-EC001
Procedure, shortened: (§2)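 Standard CLSI (M100-S24) microdilution in cation-adjusted broth gives the MIC for each strain. Test compounds are TFA-salt lipopeptides; the comparator is polymyxin B sulphate.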

[4] = test system: Klebsiella pneumoniae Kp BM1; details: Kp BM1
Procedure, shortened: as §2

[5] = test system: Pseudomonas aeruginosa FADDI-PA038; details: FADDI-PA038
Procedure, shortened: as §1

[6] = test system: Pseudomonas aeruginosa FADDI-PA01; details: FADDI-
Procedure, shortened: as §1

[7] = test system: Enterobacter cloacae FADDI-EC006; details: FADDI-EC006
Procedure, shortened: as §1

[8] = test system: Pseudomonas aeruginosa FADDI-PA022; details: FADDI-PA022
Procedure, shortened: as §1

[9] = test system: Enterobacter cloacae FADDI-EC003; details: FADDI-EC003
Procedure, shortened: as §1

[10] = test system: Klebsiella pneumoniae FADDI-KP032; details: FADDI-KP032
Procedure, shortened: as §1

[11] = test system: Acinetobacter baumannii ATCC 17978; details: ATCC 17978
Procedure, shortened: as §1

[12] = test system: Acinetobacter baumannii FADDI-AB034; details: FADDI-AB034
Procedure, shortened: as §1

[13] = test system: Pseudomonas aeruginosa ATCC 27853; details: ATCC 27853
Procedure, shortened: as §1

SMILES | Minimum inhibitory concentration [1] [µg/mL] | Minimum inhibitory concentration [2] [µg/mL] | Minimum inhibitory concentration [3] [µg/mL] | Minimum inhibitory concentration [4] [µg/mL] | Minimum inhibitory concentration [5] [µg/mL] | Minimum inhibitory concentration [6] [µg/mL] | Minimum inhibitory concentration [7] [µg/mL] | Minimum inhibitory concentration [8] [µg/mL] | Minimum inhibitory concentration [9] [µg/mL] | Minimum inhibitory concentration [10] [µg/mL] | Minimum inhibitory concentration [11] [µg/mL] | Minimum inhibitory concentration [12] [µg/mL] | Minimum inhibitory concentration [13] [µg/mL]
CC[C@@H]1NC(=O)[C@@H](CC(C)C)NC(=O)[C@H](CCN)NC(=O)[C@@H](NC(=O)[C@H](CN)NC(=O)[C@@H](NC(=O)[C@H](CCN)NC(=O)c2cnc3ccccc3c2)[C@@H](C)O)CCNC(=O)[C@H]([C@@H](C)O)NC(=O)[C@H](CCN)NC(=O)[C@H](CCN)NC1=O [Compound 52] (Quinoline3carbonyl-[Dab]T[Dap][Dab][Dab][dL][Abu][Dab][Dab]T; lactam 4-C) | 0.5 (≈ 0.438 µM) | <0.125 | <0.125 | 0.5 (≈ 0.438 µM) | 0.25 (≈ 0.219 µM) | 0.5 (≈ 0.438 µM) | 1 (≈ 0.875 µM) | 0.5 (≈ 0.438 µM) | 0.5 (≈ 0.438 µM) | <0.125 | 2 (≈ 1.75 µM) | 1 (≈ 0.875 µM) | 0.5 (≈ 0.438 µM)
CC[C@@H]1NC(=O)[C@@H](CC(C)C)NC(=O)[C@H](CCN)NC(=O)[C@@H](NC(=O)[C@H](CN)NC(=O)[C@@H](NC(=O)[C@H](CCN)NC(=O)c2ncc(Br)cc2Cl)[C@@H](C)O)CCNC(=O)[C@H]([C@@H](C)O)NC(=O)[C@H](CCN)NC(=O)[C@H](CCN)NC1=O [Compound 33] (X17-[Dab]T[Dap][Dab][Dab][dL][Abu][Dab][Dab]T; lactam 4-C) | 0.5 (≈ 0.415 µM) | <0.125 | <0.125 | <0.125 | 0.5 (≈ 0.415 µM) | 0.25 (≈ 0.207 µM) | <0.125 | 0.25 (≈ 0.207 µM) | <0.125 | <0.125 | 0.5 (≈ 0.415 µM) | 0.5 (≈ 0.415 µM) | 0.25 (≈ 0.207 µM)
CC[C@@H]1NC(=O)[C@@H](CC(C)C)NC(=O)[C@H](CCN)NC(=O)[C@@H](NC(=O)[C@H](CN)NC(=O)[C@@H](NC(=O)[C@H](CCN)NC(=O)c2nc3ccccc3n2C)[C@@H](C)O)CCNC(=O)[C@H]([C@@H](C)O)NC(=O)[C@H](CCN)NC(=O)[C@H](CCN)NC1=O [Compound 57] (X69-[Dab]T[Dap][Dab][Dab][dL][Abu][Dab][Dab]T; lactam 4-C) | 0.25 (≈ 0.218 µM) | <0.125 | <0.125 | 0.25 (≈ 0.218 µM) | 0.5 (≈ 0.437 µM) | 0.25 (≈ 0.218 µM) | 1 (≈ 0.873 µM) | 0.5 (≈ 0.437 µM) | 0.25 (≈ 0.218 µM) | <0.125 | 0.5 (≈ 0.437 µM) | 0.5 (≈ 0.437 µM) | 0.5 (≈ 0.437 µM)
CC(C)C[C@H]1NC(=O)[C@H](CCN)NC(=O)[C@@H](NC(=O)[C@H](CN)NC(=O)[C@@H](NC(=O)[C@H](CCN)NC(=O)c2ncc(Cl)cc2Cl)[C@@H](C)O)CCNC(=O)[C@H]([C@@H](C)O)NC(=O)[C@H](CCN)NC(=O)[C@H](CCN)NC(=O)[C@H]([C@@H](C)O)NC1=O [Compound 8] (X1-[Dab]T[Dap][Dab][Dab][dL]T[Dab][Dab]T; lactam 4-C) | 4 (≈ 3.4 µM) | <0.125 | <0.125 | 0.5 (≈ 0.425 µM) | 0.5 (≈ 0.425 µM) | 0.5 (≈ 0.425 µM) | 0.25 (≈ 0.212 µM) | 0.5 (≈ 0.425 µM) | 0.25 (≈ 0.212 µM) | 0.5 (≈ 0.425 µM) | 4 (≈ 3.4 µM) | 4 (≈ 3.4 µM) | 0.25 (≈ 0.212 µM)
CC[C@@H]1NC(=O)[C@@H](CC(C)C)NC(=O)[C@H](CCN)NC(=O)[C@@H](NC(=O)[C@H](CN)NC(=O)[C@@H](NC(=O)[C@H](CCN)NC(=O)c2ccc3scnc3c2)[C@@H](C)O)CCNC(=O)[C@H]([C@@H](C)O)NC(=O)[C@H](CCN)NC(=O)[C@H](CCN)NC1=O [Compound 53] ({Benzothiazole(5-carbonyl)}-[Dab]T[Dap][Dab][Dab][dL][Abu][Dab][Dab]T; lactam 4-C; N-terminus assumed) | 1 (≈ 0.871 µM) | <0.125 | <0.125 | 0.5 (≈ 0.435 µM) | 0.5 (≈ 0.435 µM) | 0.5 (≈ 0.435 µM) | 2 (≈ 1.74 µM) | 0.25 (≈ 0.218 µM) | 0.25 (≈ 0.218 µM) | <0.125 | 2 (≈ 1.74 µM) | 2 (≈ 1.74 µM) | 0.5 (≈ 0.435 µM)
CC[C@@H]1NC(=O)[C@@H](CC(C)C)NC(=O)[C@H](CCN)NC(=O)[C@@H](NC(=O)[C@H](CN)NC(=O)[C@@H](NC(=O)[C@H](CCN)NC(=O)c2csc(Br)c2)[C@@H](C)O)CCNC(=O)[C@H]([C@@H](C)O)NC(=O)[C@H](CCN)NC(=O)[C@H](CCN)NC1=O [Compound 101] (X70-[Dab]T[Dap][Dab][Dab][dL][Abu][Dab][Dab]T; lactam 4-C) | 0.5 (≈ 0.425 µM) | 1 (≈ 0.85 µM) | 0.5 (≈ 0.425 µM) | 0.5 (≈ 0.425 µM) | 0.5 (≈ 0.425 µM) | 0.25 (≈ 0.213 µM) | 0.5 (≈ 0.425 µM) | 0.25 (≈ 0.213 µM) | 0.5 (≈ 0.425 µM) | 0.5 (≈ 0.425 µM) | 0.5 (≈ 0.425 µM) | 0.5 (≈ 0.425 µM) | 0.25 (≈ 0.213 µM)
CC[C@@H]1NC(=O)[C@@H](CC(C)C)NC(=O)[C@H](CCN)NC(=O)[C@@H](NC(=O)[C@H](CN)NC(=O)[C@@H](NC(=O)[C@H](CCN)NC(=O)c2cc(Cl)cc(Cl)n2)[C@@H](C)O)CCNC(=O)[C@H]([C@@H](C)O)NC(=O)[C@H](CCN)NC(=O)[C@H](CCN)NC1=O [Compound 18] (X2-[Dab]T[Dap][Dab][Dab][dL][Abu][Dab][Dab]T; lactam 4-C) | 0.5 (≈ 0.431 µM) | <0.125 | <0.125 | 0.25 (≈ 0.215 µM) | 1 (≈ 0.861 µM) | 0.25 (≈ 0.215 µM) | 0.25 (≈ 0.215 µM) | 0.5 (≈ 0.431 µM) | 0.5 (≈ 0.431 µM) | 0.25 (≈ 0.215 µM) | 1 (≈ 0.861 µM) | 0.25 (≈ 0.215 µM) | 0.25 (≈ 0.215 µM)
CC(C)C[C@H]1NC(=O)[C@H](CCN)NC(=O)[C@@H](NC(=O)[C@H](CN)NC(=O)[C@@H](NC(=O)[C@H](CCN)NC(=O)c2ncc(Cl)cc2Cl)[C@@H](C)O)CCNC(=O)[C@H]([C@@H](C)O)NC(=O)[C@H](CCN)NC(=O)[C@H](CCN)NC(=O)[C@H](C)NC1=O [Compound 10] (X1-[Dab]T[Dap][Dab][Dab][dL]A[Dab][Dab]T; lactam 4-C) | 8 (≈ 6.97 µM) | 0.25 (≈ 0.218 µM) | 0.25 (≈ 0.218 µM) | 4 (≈ 3.49 µM) | 1 (≈ 0.872 µM) | 0.5 (≈ 0.436 µM) | 0.5 (≈ 0.436 µM) | 0.5 (≈ 0.436 µM) | 0.25 (≈ 0.218 µM) | 0.5 (≈ 0.436 µM) | 4 (≈ 3.49 µM) | 4 (≈ 3.49 µM) | 0.25 (≈ 0.218 µM)
CC[C@@H]1NC(=O)[C@@H](CC(C)C)NC(=O)[C@H](CCN)NC(=O)[C@@H](NC(=O)[C@H](CN)NC(=O)[C@@H](NC(=O)[C@H](CCN)NC(=O)Cc2cn(C)c3ccccc23)[C@@H](C)O)CCNC(=O)[C@H]([C@@H](C)O)NC(=O)[C@H](CCN)NC(=O)[C@H](CCN)NC1=O [Compound 62] (X58-[Dab]T[Dap][Dab][Dab][dL][Abu][Dab][Dab]T; lactam 4-C) | 0.5 (≈ 0.432 µM) | <0.125 | <0.125 | 0.25 (≈ 0.216 µM) | 0.5 (≈ 0.432 µM) | 1 (≈ 0.863 µM) | 0.5 (≈ 0.432 µM) | 0.5 (≈ 0.432 µM) | 0.25 (≈ 0.216 µM) | <0.125 | 0.5 (≈ 0.432 µM) | 0.5 (≈ 0.432 µM) | 0.5 (≈ 0.432 µM)
